# Measurements: publication PMC11856857, “Protease-Resistant, Broad-Spectrum Antimicrobial Peptides with High Antibacterial and Antifungal Activity” (Life, 2025)
# Entries after “also recorded” stand apart in the source; their conditions may differ. Where a SMILES comes first, the peptide text is derived from it. Where no end group is shown, it is not given here.
# Experiments:
# [1] = tested on: S. aureus ATCC 29213; type: cell-based, Staphylococcus aureus
# [2] = tested on: E. coli ATCC 25922; type: cell-based, Escherichia coli
# [3] = tested on: P. aeruginosa ATCC 27853; type: cell-based, Pseudomonas aeruginosa
# [4] = tested on: C. albicans ATCC 10231; type: cell-based, Candida albicans
# [5] = tested on: human erythrocytes; type: cell-based; settings: pH 7.2
# Protocol: Permission to acquire the fresh human blood used for this experiment was granted by the […] University Local Ethics Committee (No. 2023-2/32, 27 January 2023). First, 30 μL of fresh male human blood was suspended with 10 mL of autoclaved Tris saline buffer (TBS buffer, 10 mM Tris, 150 mM NaCl, pH 7.2) and centrifuged thrice for 5 min at 1500 rpm. […] Three replicates were performed for each peptide dose. A sample of 20% Triton-X 100/DMSO was used as a positive control. After incubation, the 96-well plate was centrifuged at 1500 rpm for 10 min. Absorbance was measured at 414 nm using a microplate reader (Gen5 Synergy HT BioTek). The % lysis of the peptide was calculated as follows:% lysis = OD414 - OD414 (blank)/OD414 (total lysis - blank) × 100
# [6] = tested on: HaCaT cell line; type: cell-based, human; settings: 24 h
# Protocol: (§1) 3T3 and HaCaT cells were grown in DMEM consisting of 1% pen/strep and 10% FBS. A total of 5 × 10^4 cells were loaded into each well of a 96-well plate and incubated at 37 °C using a 5% CO2 incubator. All samples were measured in triplicate between 0.5–32 µg/mL concentrations and incubated at 37 °C for 24 h in a 5% CO2 incubator. Only cells and Mag-2 were used as negative and positive controls, respectively. After 24 h, cell cytotoxicity was evaluated using a cell proliferation kit (MTT, Roche, Basel, Switzerland) following the kit protocol and analyzed at 550 nm and 690 nm using a microplate reader (Gen5 Synergy HT BioTek). The concentration of peptides that killed 50% of the cells was determined as the IC50 in the cytotoxicity experiments.
# [7] = tested on: 3t3 cell line; type: cell-based, mouse; settings: 24 h
# Protocol: as §1
# [8] = target: T1, proteinase K (Parengyodontium album, UniProt P06873); assay: Stability toward enzymatic degradation (protease resistance assay); type: in vitro ADME; settings: peptide 1 mg/mL in TBS (50 mM Tris, 150 mM NaCl, pH 7.6) with 10% DMSO, proteinase K 1 mg/mL (30 U/mg), 37 °C, overnight (also 10 min, 30 min), HPLC at 214 nm
# T1 construct: purchased Qiagen
# Protocol: Peptide solutions were prepared at a final concentration of 1 mg/mL in TBS buffer (50 mM Tris, 150 mM NaCl, pH 7.6) including 10% DMSO. The proteinase K solution was adjusted to 1 mg/mL (enzyme activity = 30 U/mg). The peptide solution was then incubated at 37 °C overnight in an orbital shaker. After incubation, the reaction was blocked by adding 1% TFA (100 µL) in water. Peptide solutions with/without the proteinase K enzyme were analyzed at 214 nm using HPLC with an analytic column (AdvanceBio Peptide Plus, 2.1 × 150 mm, 2.7 µm, LC column, Agilent Technologies, Santa Clara, CA, USA) following the linear gradient method (30 min in a range of 5–80% acetonitrile including 0.025% TFA). MIC experiments were repeated to measure biological activities after treating the peptides with proteinase K.
# [9] = tested on: resistant Klebsiella pneumoniae (KP) strain; type: cell-based; settings: resistant (KP) strain
# [10] = tested on: methicillin-resistant S. aureus (MRSA)
# Protocol: (§2) The antibacterial activity of the bacterial strains was determined using the EUCAST broth microdilution method [24]. Bacterial strains were streaked into the MHA and incubated at 37 °C overnight. The initial doses were adjusted to 1024 µg/mL using a peptide concentration measurement kit (Pierce™ Quantitative Fluorometric Peptide Assay, Thermo Scientific™) and serially diluted to 0.125 µg/mL. All samples were tested in triplicate [25, 26]. The antifungal activity of the Candida species was measured in accordance with the guidelines in CLSI document M27-A3 [27].
# [11] = tested on: Aspergillus flavus (AF); settings: clinical strain AF1
# Protocol: (§3) Clinically resistant bacterial strains that are classified as “ESKAPE pathogens”, including vancomycin-resistant Enterococcus faecium (VRE), methicillin-resistant S. aureus (MRSA), Klebsiella pneumoniae (KP), Acinetobacter baumannii (AB), P. aeruginosa (PA) by WHO21, multi-drug-resistant Aspergillus flavus (AF), C. albicans (CA), and C. krusei (CK), were provided by Acibadem Labmed.
# as §2
# [12] = tested on: C.albicans (CA)
# Protocol: as §2
# [13] = tested on: vancomycin-resistant Enterococcus faecium (VRE)
# Protocol: as §3, §2
# [14] = tested on: C.krusei (CK)
# Protocol: as §2
# [15] = tested on: Klebsiella pneumoniae (KP)
# Protocol: as §2
# [16] = tested on: Acinetobacter baumannii (AB)
# Protocol: as §3, §2
# [17] = tested on: P. aeruginosa (PA)
# Protocol: as §2
# [18] = tested on: ESKAPE pathogens, multi-drug-resistant A. flavus (AF), and C. albicans (CA) strains
# Protocol: as §3, §2
# [19] = tested on: S. aureus (ATCC 29213) inoculated wound
# [20] = tested on: S. aureus (ATCC 29213)-infected silk suture wound; assay: Surgical site infection model; type: in vivo, Wistar rats; settings: MICX40, 100 µL topically once, 3 h after treatment; p < 0.01
# Protocol: Two McFarland S. aureus (ATCC 29213) bacteria were used for suture contamination. The 1.5 cm silk sutures (3-0) were incubated in brain heart infusion (BHI) broth at 37 °C, 150 rpm for 10 min. At the end of the incubation, the sutures were dried on sterile filter paper for 10 min. After drying, one of the sutures was placed in BHI broth, and the bacteria were measured. The number of bacteria obtained from the suture was 7 × 10^5 CFU/mL.
# The rats were randomly divided into four groups consisting of seven rats per group and anesthetized with isoflurane. The back of the rat was shaved, sterilized with 70% ethanol, and two 1.5 cm full-thickness wounds were incised centrally on the dorsal midline of the neck. A 1.5 cm S. aureus (ATCC 29213)-infected 3-0 silk suture was placed into the wound incision. A staple was attached to the middle of the incision to prevent the rat from removing the infected suture. After implantation of the suture into the wound, the rats were treated topically once with 100 µL of D-TN6 (MICX40), ampicillin (MICX40), or SF. The animals were decapitated 3 h after treatment. Wound areas were dissected and placed into BHI broth. After homogenization, the bacteria on the wound were counted.
# [21] = MICX40 topically twice a day for 10 days, ELISA, means ± S.E.M.
# T1 sequence (P06873 106-384): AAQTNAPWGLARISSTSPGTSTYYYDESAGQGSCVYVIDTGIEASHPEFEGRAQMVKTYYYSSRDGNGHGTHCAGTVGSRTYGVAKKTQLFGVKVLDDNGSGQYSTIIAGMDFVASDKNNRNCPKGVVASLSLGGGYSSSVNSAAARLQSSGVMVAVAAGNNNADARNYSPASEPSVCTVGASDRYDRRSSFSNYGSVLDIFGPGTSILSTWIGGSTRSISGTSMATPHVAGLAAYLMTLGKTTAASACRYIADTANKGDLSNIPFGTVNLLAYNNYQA
molecule,measurement,setting,value
CC(C)C[C@@H](NC(=O)[C@H](N)CCCNC(=N)N)C(=O)N[C@H](CC(C)C)C(=O)N[C@H](CCCNC(=N)N)C(=O)N[C@H](CC(C)C)C(=O)N[C@H](CC(C)C)C(=O)N[C@H](CC(C)C)C(=O)N[C@H](CC(C)C)C(=O)N[C@H](CCCNC(=N)N)C(=O)N[C@H](CC(C)C)C(=O)N[C@H](CC(C)C)C(=O)N[C@H](CCCNC(=N)N)C(N)=O [D-TN1] (HELM PEPTIDE1{[dR].[dL].[dL].[dR].[dL].[dL].[dL].[dL].[dR].[dL].[dL].[dR].[am]}$$$$V2.0),MIC S. aureus,[1],4 µg/mL
same,MIC E. coli,[2],8 µg/mL
same,MIC P. aeruginosa,[3],4 µg/mL
same,MIC C. albicans,[4],1 µg/mL
same,HC50,[5],77.63 µg/mL
CC(C)C[C@@H](NC(=O)[C@@H](CC(C)C)NC(=O)[C@@H](CC(C)C)NC(=O)[C@@H](CCCNC(=N)N)NC(=O)[C@@H](CC(C)C)NC(=O)[C@@H](CC(C)C)NC(=O)[C@@H](CCCNC(=N)N)NC(=O)[C@@H](CC(C)C)NC(=O)[C@@H](CC(C)C)NC(=O)[C@H](N)CCCNC(=N)N)C(N)=O [D-TN3] (HELM PEPTIDE1{[dR].[dL].[dL].[dR].[dL].[dL].[dR].[dL].[dL].[dL].[am]}$$$$V2.0),MIC S. aureus,[1],8 µg/mL
same,MIC E. coli,[2],2 µg/mL
same,MIC P. aeruginosa,[3],4 µg/mL
same,MIC C. albicans,[4],0.25 µg/mL
same,HC50,[5],32.63 µg/mL
CC(C)C[C@@H](NC(=O)[C@H](N)CCCNC(=N)N)C(=O)N[C@H](CC(C)C)C(=O)N[C@H](CCCNC(=N)N)C(=O)N[C@H](CC(C)C)C(=O)N[C@H](CC(C)C)C(=O)N[C@H](CC(C)C)C(=O)N[C@H](CCCNC(=N)N)C(=O)N[C@H](CC(C)C)C(=O)N[C@H](CC(C)C)C(=O)N[C@H](CCCNC(=N)N)C(N)=O [D-TN6] (HELM PEPTIDE1{[dR].[dL].[dL].[dR].[dL].[dL].[dL].[dR].[dL].[dL].[dR].[am]}$$$$V2.0),MIC C. albicans,[4],0.5 µg/mL
same,IC50 HaCaT,[6],19.64 µg/mL
same,IC50 3t3,[7],17.58 µg/mL
same,Stability toward proteinase K (HPLC),[8],resistant to proteinase K
same,Stability toward proteinase K (HPLC),[8]; listed as D- TN6,highly protease-resistant
same,MIC KP1,[9],0.5 µg/mL
same,MIC KP2,[9],1 µg/mL
same,MIC KP8,[9],1 µg/mL
same,MIC KP9,[9],0.5 µg/mL
same,MIC KP13,[9],0.5 µg/mL
same,MIC KP22,[9],0.5 µg/mL
same,MIC KP28,[9],1 µg/mL
same,MIC KP29,[9],2 µg/mL
same,MIC KP35,[9],8 µg/mL
same,MIC KP40,[9],2 µg/mL
same,MIC KP41,[9],4 µg/mL
same,MIC KP42,[9],2 µg/mL
same,MIC KP46,[9],2 µg/mL
same,MIC KP52,[9],2 µg/mL
same,MIC MRSA 1,[10]; clinical strain MRSA 1,0.5 µg/mL
same,MIC MRSA 2,[10]; clinical strain MRSA 2,1 µg/mL
same,MIC MRSA 3,[10]; clinical strain MRSA 3,1 µg/mL
same,MIC AF1,[11],4 µg/mL
same,MIC CA 1,[12]; clinical strain CA 1,2 µg/mL
same,MIC CA 2,[12]; clinical strain CA 2,2 µg/mL
same,MIC CA 3,[12]; clinical strain CA 3,1 µg/mL
same,MIC VRE 1,[13]; clinical strain VRE 1,0.25 µg/mL
same,MIC VRE 2,[13]; clinical strain VRE 2,0.25 µg/mL
same,MIC CK 1,[14]; clinical strain CK 1,2 µg/mL
same,MIC CK 2,[14]; clinical strain CK 2,2 µg/mL
same,MIC CK 3,[14]; clinical strain CK 3,2 µg/mL
same,MIC KP1,[15],4 µg/mL
same,MIC KP2,[15],2 µg/mL
same,MIC KP 3,[15],1 µg/mL
same,MIC KP 4,[15],1 µg/mL
same,MIC range against clinical A. baumannii strains,[16]; AB,0.25 to 2 µg/mL
same,MIC AB1,[16]; clinical strain AB1,0.25 µg/mL
same,MIC AB2,[16]; clinical strain AB2,2 µg/mL
same,MIC PA1,[17],1 µg/mL
same,MIC PA2,[17],1 µg/mL
same,MIC PA3,[17],0.5 µg/mL
same,MIC PA4,[17],1 µg/mL
same,MIC range against seven species resistant to current antibiotics,[18],0.25 to 4 µg/mL
same,Serum CRP,"[19]; rat, in vivo",N
same,"indicators of toxicity by ALT, AST, TB, and CRP levels in serum","[19]; rat, in vivo",did not exhibit any indicators of toxicity
same,toxic alterations of liver tissue hepatocytes and stratified epithelium,"[19]; rat, in vivo",did not exhibit any toxic alterations
CC1(C)S[C@@H]2[C@H](NC(=O)[C@H](N)c3ccccc3)C(=O)N2[C@H]1C(=O)O [ampicillin],bacterial counts in wound versus control group,[20],significantly reduced
same,"IL1-β, liver",[19]; [21],705.7 ± 87.07
same,"IL1-β, serum",[19]; [21],826.9 ± 105.5
same,"IL1-β, wound tissue",[19]; [21],1779 ± 45.54
same,"IL-6, liver",[19]; [21],35.51 ± 2.82
same,"IL-6, serum",[19]; [21],50.02 ± 2.04
same,"IL-6, wound tissue",[19]; [21],77.60 ± 4.77
same,"TNF-α, liver",[19]; [21],107.0 ± 8.14
same,"TNF-α, serum",[19]; [21],212.2 ± 9.02
same,"TNF-α, wound tissue",[19]; [21],225.4 ± 12.19
same,wound healing by day 4 versus control group,"[19]; MICX40 topically twice a day, p < 0.01",significantly accelerated
same,Serum ALT,"[19]; rat, in vivo",52.4 ± 3 U/L
same,Serum AST,"[19]; rat, in vivo",161.6 ± 12.8 U/L
same,Serum CRP,"[19]; rat, in vivo",N
same,Serum TB,"[19]; rat, in vivo",0.1 mg/dL
same,"indicators of toxicity by ALT, AST, TB, and CRP levels in serum","[19]; rat, in vivo",did not exhibit any indicators of toxicity
RLLRLLLRLLR-NH2 [TN6],MIC S. aureus,[1],2 µg/mL
same,MIC E. coli,[2],2 µg/mL
same,MIC P. aeruginosa,[3],8 µg/mL
same,MIC C. albicans,[4],0.5 µg/mL
same,IC50 HaCaT,[6],15.32 µg/mL
same,IC50 3t3,[7],29.80 µg/mL
same,Stability toward proteinase K (HPLC),[8],fragmented into different-sized molecules; also recorded: disappeared
